{"source": "patent US4366148A", "about": "“Use of somatostatin in the prevention and cure of vascular, membrane, or organ lesions” (Brigham and Women's Hospital, priority 1981, dated 1982)", "key": {"rats given phalloidin [1]": {"system": "rats given phalloidin", "assay": "Toxicity of phalloidin: hemorrhagic liver lesions and mortality after pretreatment", "format": "in vivo, Sprague-Dawley rat", "conditions": "for Hepatic lesions (Scale: 0-3) / Mortality (%): pretreatment before phalloidin 0.12 mg/100 g i.p.; for Hepatic lesions (Scale: 0-3): 0=normal, 3=enlargement and uniform hemorrhage of whole liver; for Mortality (%): observed up to 24 hr; for protective effect against phalloidin toxicity (lesions, mortality), in words: rats given phalloidin 0.12 mg/100 g i.p.", "experimental": "In the present studies, Sprague-Dawley rats with an initial body weight of about 200 g had free access to Purina lab chow and tap water. Each control and experimental group consisted of 3-5 animals; every experiment was performed at least twice and the results were pooled.\nSomatostatin (250 μg in 1 ml of protamine sulfate and ZnCl2 suspension) was injected s.c. 30 min before and 30 min after the administration of phalloidin (0.12 mg/100 g i.p.). In addition, 10 min before the toxin, another dose of 250 μg of somatostatin in 1 ml of distilled water was given i.p. Other groups of rats also received the sulfhydryl blocker N-ethylmaleimide (alone or in combination with somatostatin), 2 mg/100 g s.c. 20 min before and 40 min after phalloidin. A --SH free agalogue of somatostatin was used instead of the regular somatostatin in the same dose and at the same time in some experiments. This --SH free analogus was Di-S-tBu-Somatostatin, in which the hydrogens of the --SH groups (cystein) were replaced with t-butyl groups. […] The hemorrhagic liver lesions were evaluated on a scale of 0-3, where 0=normal, 1=multifocal (1-5 mm) hemorrhages, 2=large hemorrhagic areas entirely involving one lobe (usually the left and/or medium), 3=enlargement and uniform hemorrhage involving the whole liver."}, "rats given phalloidin [2]": {"system": "rats given phalloidin", "assay": "Model study: phalloidin intoxication of rats, mortality, liver weight, histology", "format": "in vivo, rat", "conditions": "for liver histology (light microscopy): phalloidin-intoxicated rats, with or without somatostatin", "experimental": "This toxin kills rats within about 4 hours after intraperitoneal injection. Rats injected with phalloidin show a massive increase in liver size accompanied by hemorrhage. In a control group of rats given phalloidin but no somatostatin, 22 or 24 rats died within 2-4 hours. […] In the test group of 26 animals that were treated with both phalloidin and somatostatin, only 8 rats died. Furthermore, only a 30% average increase in liver weight was found in 10 animals treated with somatostatin and phalloidin and sacrificed four hours after intoxication."}, "[3]": {"system": "hepatic blood vessels of rats given phalloidin", "assay": "Hepatic uptake of Evans blue after phalloidin (vascular and hepatic membrane lesions)", "format": "in vivo, Sprague-Dawley rat", "conditions": "for Evans blue (μg/g liver): Evans blue 1 mg/100 g i.v. 15 min before autopsy, somatostatin 250 μg s.c. 30 and 10 min before phalloidin; for hepatic uptake of Evans blue, in words: rats given phalloidin with or without somatostatin", "experimental": "(§1) In the biochemical experiments, the animals were also injected with Evans blue 15 min before autopsy. At autopsy the portal vein was perfused in situ with 20 ml of saline to remove blood from hepatic vasculature. […] In the morphologic experiments, groups of rats were also injected with colloidal carbon (India ink, 0.1 mg/100 g i.v.) 15 min before autopsy. At that time pieces of liver were processed for subsequent light or electron microscopic studies. […] In rats given phalloidin, carbon labeling of sinusoidal macrophages was decreased in the centrilobular areas, while early deposits of carbon were seen along the sinusoidal walls in the periportal regions. […] As opposed to controls, carbon particles were also seen beyond endothelial cells and in Disse space soon after phalloidin injection. Subsequently, vacuolation of hepatocytes and increased amount of extravascular plasma-like material were noticed.\nIn all of the experiments, female or male Sprague-Dawley rats (150-200 g) were used. The animals were given free access to Purina lab chow and tap water. Each group consisted of at least 3-4 rats; every experiment was repeated at least twice and the results were pooled.\nControl animals were injected with normal saline 30 min prior to sacrifice and autopsy. Animals treated with phalloidin alone were injected i.p. with 0.12 mg/100 g body weight 15 min, 30 min, or 60 min before sacrifice and autopsy. Animals treated with both phalloidin and somatostatin received phalloidin as above in addition to 250 μg s.c. somatostatin at 30 and 10 minutes before the phalloidin injection. The first somatostatin injection was dissolved in 1 ml of solution consisting of 0.5 ml of 0.1% protamine sulfate and 0.5 ml of ZnCl2, 250-260 μg/ml. The second somatostatin injection was given in normal saline. In addition, rats of all groups were given Evans blue, 1 mg/100 g i.v., 15 min before sacrifice and autopsy. Livers were prefused with 20 ml of saline in situ through the protal vein to remove intravascular dye prior to measuring dye uptake by the liver tissue.\nA one gram sample from the left lobe was measured spectrophotometrically to determine the uptake of Evans blue dye in μg/g liver tissue."}, "[4]": {"system": "liver of rats given phalloidin", "assay": "Morphologic experiments: colloidal carbon (India ink) labeling of liver, light and electron microscopy", "format": "in vivo, rat", "experimental": "In both cases, rats were given saline (control), phalloidin alone, or phalloidin and somatostatin. Somatostatin was given in subcutaneous injections in a solution of protamine sulfate and zinc chloride in order to prolong its effectiveness, or in normal saline.\nas §1"}, "[5]": {"system": "cysteamine-induced duodenal ulcer", "conditions": "pretreatment with exogenous somatostatin; cited from earlier work"}, "[6]": {"system": "experimentally-induced pancreatitis", "conditions": "in vivo; cited from earlier work"}, "adrenal and lung lesions": {"system": "adrenal and lung lesions", "conditions": "in vivo; cited from earlier work"}, "[7]": {"conditions": "15 min after phalloidin 0.12 mg/100 g i.p."}, "[8]": {"conditions": "30 min after phalloidin 0.12 mg/100 g i.p."}, "[9]": {"conditions": "60 min after phalloidin 0.12 mg/100 g i.p."}}, "note": "Numbered stars: 1 amine (or outer) side, 2 acyl side, 3 side chain; on linkers, the order of the positions; unused ones are H or OH. Bridge positions count the residues as written; N and C are the ends. Square brackets hold non-standard residues; d marks the D form. Peptide text beside a SMILES is read from it. Trp(2-yl) = O=C([C@H](Cc1c([*:3])[nH]c2ccccc12)N[*:1])[*:2]; Leu(4R-OH,5-OH) = C[C@](O)(CO)C[C@H](N)C(=O)O; cisHyp = O=C(O)[C@@H]1C[C@H](O)CN1"}
{"compound": "CCN1C(=O)C=CC1=O", "note": "[N--Ethylmaleimide (N--EM), N-ethylmaleimide]", "values": [{"measurement": "Hepatic lesions (Scale: 0-3)", "setting": "rats given phalloidin [1]", "result": "2.3 ± 0.2"}, {"measurement": "Mortality (%)", "setting": "rats given phalloidin [1]", "result": 90, "unit": "%"}, {"measurement": "protective effect against phalloidin toxicity (lesions, mortality), in words", "setting": "rats given phalloidin [1]; listed as N-ethylmaleimide", "result": "counteracted the protective action of regular somatostatin"}, {"measurement": "protective effect against phalloidin toxicity (lesions, mortality), in words", "setting": "rats given phalloidin [1]; listed as N-ethylmaleimide (N-EM)", "result": "counteracted the beneficial effect of somatostatin"}]}
{"compound": "C[C@@H]1NC(=O)[C@H](C[C@@](C)(O)CO)NC(=O)[C@@H]2Cc3c([nH]c4ccccc34)SC[C@H](NC(=O)[C@@H]([C@H](C)O)NC1=O)C(=O)N1C[C@@H](O)C[C@H]1C(=O)N[C@@H](C)C(=O)N2", "note": "[Phalloidin, phalloidin] (cyclo(A[dT]C[cisHyp]A[Trp(2-yl)][Leu(4R-OH,5-OH)]); thioether 3-6)", "values": [{"measurement": "time within which the toxin kills rats", "setting": "rats given phalloidin [2]; after intraperitoneal injection", "result": "≤ 4", "unit": "h"}, {"measurement": "average increase in liver weight, phalloidin alone", "setting": "rats given phalloidin [2]; autopsy of rats that died after phalloidin alone", "result": 70, "unit": "%"}, {"measurement": "rats died, phalloidin but no somatostatin", "setting": "rats given phalloidin [2]; control group of 24 rats given phalloidin alone", "result": 22, "unit": "rats"}, {"measurement": "time within which control rats died", "setting": "rats given phalloidin [2]; control group, phalloidin but no somatostatin", "result": "2 to 4", "unit": "h"}, {"measurement": "liver histology (light microscopy)", "setting": "rats given phalloidin [2]", "result": "vacuolization of hepatocytes, congestion, and hemorrhagic necrosis"}, {"measurement": "Evans blue (μg/g liver)", "setting": "[3]; [7]", "result": "11.21 ± 2.40", "unit": "μg/g liver"}, {"measurement": "Evans blue (μg/g liver)", "setting": "[3]; [8]", "result": "28.50 ± 4.67", "unit": "μg/g liver"}, {"measurement": "Evans blue (μg/g liver)", "setting": "[3]; [9]", "result": "51.08 ± 13.56", "unit": "μg/g liver"}, {"measurement": "hepatic uptake of Evans blue, in words", "setting": "[3]", "result": "time dependent increase"}]}
{"compound": "Di-S-tBu-Somatostatin [di-S--tBu-Somatostatin]", "values": [{"measurement": "Hepatic lesions (Scale: 0-3)", "setting": "rats given phalloidin [1]", "result": "2.7 ± 0.2"}, {"measurement": "Mortality (%)", "setting": "rats given phalloidin [1]", "result": 92, "unit": "%"}, {"measurement": "protective effect against phalloidin toxicity (lesions, mortality), in words", "setting": "rats given phalloidin [1]; listed as somatostatin analogue without thiol groups", "result": "inactive"}, {"measurement": "protective effect against phalloidin toxicity (lesions, mortality), in words", "setting": "rats given phalloidin [1]; listed as sulfhydryl-free derivative of somatostatin", "result": "without effect"}]}
{"compound": "Somatostatin", "values": [{"measurement": "average increase in liver weight, somatostatin and phalloidin", "setting": "rats given phalloidin [2]; 10 animals sacrificed four hours after intoxication", "result": 30, "unit": "%"}, {"measurement": "liver histology (light microscopy)", "setting": "rats given phalloidin [2]", "result": "only mild vacuolization of hepatocytes and slight congestion"}, {"measurement": "rats died, phalloidin and somatostatin", "setting": "rats given phalloidin [2]; test group of 26 animals treated with both phalloidin and somatostatin", "result": 8, "unit": "rats"}, {"measurement": "Evans blue (μg/g liver)", "setting": "[3]; [7]", "result": "7.17 ± 0.64", "unit": "μg/g liver"}, {"measurement": "Evans blue (μg/g liver)", "setting": "[3]; [8]", "result": "16.93 ± 4.76", "unit": "μg/g liver"}, {"measurement": "Evans blue (μg/g liver)", "setting": "[3]; [9]", "result": "15.50 ± 4.65", "unit": "μg/g liver"}, {"measurement": "hepatic uptake of Evans blue, in words", "setting": "[3]", "result": "virtually abolished this enhanced uptake"}, {"measurement": "hepatic uptake of Evans blue, in words", "setting": "[3]; listed as somatostatin", "result": "prevented or significantly decreased"}, {"measurement": "distribution of India ink / carbon labeling of sinusoidal walls, light microscopy", "setting": "[4]; colloidal carbon 0.1 mg/100 g i.v. 15 min before autopsy, after phalloidin", "result": "virtually abolished the carbon labeling of sinusoidal walls"}, {"measurement": "electron microscopic changes (endothelial breakdown, extravascular carbon, vacuolation of hepatocytes)", "setting": "[4]; livers of rats given somatostatin and phalloidin", "result": "markedly diminished or absent"}, {"measurement": "Hepatic lesions (Scale: 0-3)", "setting": "rats given phalloidin [1]", "result": "0.7 ± 0.2"}, {"measurement": "Mortality (%)", "setting": "rats given phalloidin [1]", "result": 20, "unit": "%"}, {"measurement": "protective effect against phalloidin toxicity (lesions, mortality), in words", "setting": "rats given phalloidin [1]", "result": "significantly diminished"}, {"measurement": "cysteamine-induced duodenal ulcer", "setting": "[5]", "result": "prevents"}, {"measurement": "gastric acid output", "setting": "[5]", "result": "minimal inhibition"}, {"measurement": "effect on experimentally-induced pancreatitis", "setting": "[6]", "result": "beneficial effect"}, {"measurement": "effect on adrenal and lung lesions", "setting": "adrenal and lung lesions", "result": "beneficial effect"}]}
